Test results taken from the NIST ThermoML archive (doi:10.1016/j.fluid.2012.11.026).
± gives the expanded uncertainty stated by the source.

Conditions: Liquid, Closed cell (Static) method

Row | Compound | vapor or sublimation pressure (353.15 K) [kPa] | vapor or sublimation pressure (363.15 K) [kPa]
1 | CCOC(=O)OCC [diethyl carbonate] | 20.74 ± 2.2 | 30.23 ± 3.1
2 | CCO [ethanol] | 108.14 ± 11 | 156.04 ± 16
3 | O [water] | 47.33 ± 4.8 | 70.07 ± 7
